# Source: PubChem BioAssay AID434987 (Southern Research Specialized Biocontainment Screening …, 2010)
# Active and inactive are the calls of the source. How the calls were made is not given here.
# Tested on: M. tuberculosis H37Rv growth inhibition with meropenem
# Experiment: dose response, H37Rv, with and without meropenem (AID 434987);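 further: growth over 7 days at 37 °C before Alamar Blue read on day 9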
# [1] = M. tuberculosis H37Rv growth inhibition, measured here: IC50 without meropenem
# [2] = M. tuberculosis H37Rv growth inhibition, measured here: IC90 without meropenem
# [3] = measured here: IC90 with meropenem
SMILES,IC50,IC50 [1] [µM],IC90 [2] [µM],IC90 [3] [µM]
C=CCSc1nnc(-c2cc3c(-c4ccccc4)nn(C)c3s2)n1C,26 µM (inactive),52.4,92,> 100
O=C(Cc1cccc2ccccc12)N/N=C/c1ccc(OC(=O)/C=C/c2ccco2)cc1,69 µM (inactive),> 100,> 100,> 100
O=C(O)CCCN1C(=O)/C(=C\c2ccc(-c3nc4ccccc4s3)o2)SC1=S,24.3 µM,60.4,> 100,> 100
O=C1O/C(=C/c2ccccc2)N=C1c1ccccc1,1.34 µM,16.9,> 100,28.3
COc1ccc(Cl)cc1NC(=O)C/C(C)=N/NC(=O)CC#N,7.99 µM,> 100,> 100,> 100
COC(=O)c1ccccc1NC(=O)CSCC(=O)Nc1ccc(F)cc1,39.7 µM (inactive),94.9,> 100,> 100
Cc1nn(C)c(C)c1C1C(C#N)=C(N)OC2=C1C(=O)CCC2 (configuration not stated),> 100 µM (inactive),> 100,> 100,> 100
COc1cccc(/C=N/NC(=O)c2cnccn2)c1O,2.58 µM,44.8,> 100,13.9
CCN1C(=O)C(=Cc2ccc(N3CCOCC3)o2)C(=O)N(CC)C1=S,> 100 µM (inactive),> 100,> 100,> 100
CCCn1nc2cc(C(=O)NCCCCc3ccccc3)ccc2c1OCC,90.1 µM (inactive),92.3,> 100,> 100
CC1CCN(CC(CS(=O)(=O)c2ccc([N+](=O)[O-])cc2)N2CCC(C)CC2)CC1 (configuration not stated),13.7 µM (inactive),21,30.3,31.5
COc1ccccc1/C=N/NC(=S)Nc1cccnc1,31.1 µM,> 100,> 100,> 50
COc1ccc(-c2csc(NC(=O)c3c(C)noc3C)n2)cc1,25.9 µM,> 100,> 100,> 100
c1ccc(-c2cc3ccccc3[nH]2)cc1,> 100 µM (inactive),> 100,> 100,> 100
COc1ccc2ccccc2c1/C=N/NC(=O)c1cccc(Br)c1,> 100 µM (inactive),> 100,> 100,> 100
O=C(Nc1nc2ccccc2[nH]1)c1ccccc1F,> 100 µM (inactive),> 100,> 100,> 100
CCc1ccccc1NC(=O)CNC(=O)c1cc(C2CC2)nn1-c1ccccc1,> 100 µM (inactive),> 100,> 100,> 100
O=C(Nc1ccc([N+](=O)[O-])cc1)c1cc2ccccc2nc1Cl,> 100 µM (inactive),> 100,> 100,> 100
O=c1c2c(nc3n1CCCCC3)sc1c(O)c(Br)ccc12,48 µM (inactive),> 100,> 100,> 50
COc1ccccc1CNC(=O)COC(=O)C1=COCCO1,18.5 µM,67.9,> 100,> 100

SMILES,IC50,IC50 [1] [µM],IC90 [2] [µM],IC90 [3] [µM]
O=C(Nc1ccc2oc(-c3ccc(Cl)c(Cl)c3)nc2c1)c1ncn[nH]1,61.9 µM (inactive),79.8,> 100,> 100
Cc1ccc(/C=C/C(=O)OCC(=O)NC(C)c2ccccc2)o1 (configuration not stated),> 100 µM (inactive),> 100,> 100,> 100
COc1ccc2nc(SCC(=O)N3CCCCCC3)c(C#N)cc2c1,> 50 µM (inactive),> 100,> 100,> 50
CC(C)=CCC/C(C)=C/C=N/NC(=O)c1ccc([N+](=O)[O-])cc1,1.02 µM,49,> 100,> 100
CC(C)OC(=O)CSc1nc(N2CCOCC2)c2c(c1C#N)CC(C)(C)OC2,> 100 µM (inactive),> 100,> 100,> 100
Cn1c(=O)c(C(=O)COC(=O)c2cc(C3CC3)nc3ccccc23)c(N)n(Cc2ccccc2)c1=O,> 100 µM (inactive),> 100,> 100,> 100
CCN(CC)C(=O)COc1ccc(-c2nnc(Nc3ccc(OC)c(C(=O)NC)c3)c3ccccc23)cc1,68.8 µM (inactive),82.3,> 100,> 100
COC(=O)c1c(NC(=O)C2c3ccccc3Oc3ccccc32)sc(C)c1C,> 100 µM (inactive),> 100,> 100,> 100
Cc1c(-c2ccccc2)cnc2c(C)cccc12,59.9 µM (inactive),95.6,> 100,> 100
CCOc1cc(/C=N\NC(=O)c2ccc(NC(=O)C(C)(C)C)cc2)ccc1OC(=O)c1ccc(C)cc1,> 100 µM (inactive),> 100,> 100,> 100
O=C(Nc1nnc(-c2ccccc2SCc2ccccc2F)s1)Nc1ccccc1F,> 100 µM (inactive),> 100,> 100,> 100
CCOc1ccc2nc(SCC(=O)Nc3nonc3C)[nH]c2c1,32.8 µM,> 100,> 100,> 100
O=C(Nc1ccccc1)Nc1csc2ccccc12,< 0.2 µM,23.9,> 100,20.9
O=c1oc(-c2cccs2)nc2sc3c(c12)CCC3,93 µM (inactive),> 100,> 100,> 100
O=C(COC(=O)c1ccc([N+](=O)[O-])s1)NCc1ccc(F)cc1,37.9 µM (inactive),56.6,> 100,> 100
Cc1cccc(C)c1-n1c(C)cc(/C=C2\C(=O)NN(c3ccccc3)C2=O)c1C,> 100 µM (inactive),> 100,> 100,> 100
C/C(=N/NC(=O)c1cccs1)c1ccc(NC(=O)COc2ccc(Cl)cc2)cc1,> 100 µM (inactive),> 100,> 100,> 100
CC1CC2(CCCCC2)Nc2ccc3ccccc3c21 (configuration not stated),49.1 µM (inactive),86.1,96,> 100
Cc1cc(NC(=O)COc2nnc(-c3ccccc3)c3ccccc23)no1,14 µM,> 100,> 100,> 25
C=CCc1cc(Cl)ccc1OCCCNC(C)CC (configuration not stated),38.2 µM (inactive),49.2,55.1,51.3

SMILES,IC50,IC50 [1] [µM],IC90 [2] [µM],IC90 [3] [µM]
CCCCCC(=O)Nc1cccc(C2=NOC3(C2)C[C@@H](C(N)=O)N(C(=O)CC(c2ccccc2)c2ccccc2)C3)c1 (some centres not stated),51.6 µM (inactive),> 100,> 100,> 100
COc1ccc(/C=C/C(=O)N(C(C)C)C(C)C)cc1Br,5.89 µM,93,> 100,96.4
C=C(C)C(=O)O[C@H]1C/C(C)=C\C(=O)/C=C(\C)[C@H](O)[C@@H]2OC(=O)C(=C)[C@@H]21,10.3 µM,41.1,56,31.3
COc1ccc(C(=O)Nc2ccccc2C(=O)NC(C(=O)NCc2ccco2)C(C)C)cc1 (configuration not stated),> 100 µM (inactive),> 100,> 100,> 100
CCOC(=O)/C(=N\Nc1ccccc1)c1csc(Nc2ccc(C)cc2)n1,> 100 µM (inactive),> 100,> 100,> 100
CCOC(=O)c1ccc(NC(=O)Cc2coc3cc4c(cc23)CCC4)cc1,> 100 µM (inactive),> 100,> 100,> 100
Cc1cc(=O)[nH]c(N/N=C/c2c(O)n(-c3ccccc3)c(=O)c3ccccc23)n1,1.87 µM,7.61,> 100,13.6
O=C(Nc1cccc(Cl)c1N1CCOCC1)c1ccc([N+](=O)[O-])o1,0.909 µM,11,> 100,38.2
COc1ccccc1/C=C/C(=O)NCC(=O)N/N=C/c1cc(Br)ccc1OC,24 µM,> 100,> 100,> 100
CSCC(=O)Nc1ccc(F)c(Cl)c1,10.1 µM (inactive),21.9,> 100,> 100
COC(=O)c1sc(-c2ccc(Cl)cc2)cc1NC(=O)COCC(=O)O,15.2 µM,39.5,> 100,44.8
COC(=O)CN1C(CN2CCOCC2)=Nc2ccc(Br)cc2C1c1ccccc1 (configuration not stated),> 100 µM (inactive),> 100,> 100,> 100
COc1ccc(Nc2cc(C(=O)NCc3ccco3)c3ccccc3n2)c(OC)c1,> 100 µM (inactive),> 100,> 100,> 100
CCOC(=O)Cn1c(C)cc(=O)c2cccc(C)c21,26.4 µM,> 100,> 100,> 100
O=C(CCS(=O)(=O)c1ccc(F)cc1)Nc1nnc(-c2cccs2)o1,2.94 µM,47.2,> 100,> 100
Cc1ccc(C(=O)NCC2(c3ccccc3)CCCC2)cc1,75.3 µM (inactive),> 100,> 100,> 100
COc1ccc([N+](=O)[O-])cc1C1NN=C(c2ccccc2O)S1 (configuration not stated),> 100 µM (inactive),> 100,> 100,> 100
CCN=c1scc(-c2ccccc2)n1/N=C/c1ccccn1,93.2 µM (inactive),> 100,> 100,> 100
